Source: patent US20090156404A1, “Methods and Compositions for Reducing Stress in Plants” (CROP MICROCLIMATE MANAGEMENT, INC., priority 2007, published 2009)

What was measured:
Assay type in all cases: in vivo, tomato
tomatoes (var. Marglobe) [1] = test: Freeze event, greenhouse grown tomatoes sprayed with composition (Example 1); details: exposures to −3.3° C
Text: Unadapted plants in trays were sprayed with a composition comprised of a particulate material and a plant growth regulating compound mixed with water. The composition was applied using a backpack sprayer in a factorial trial design. The particulate material used was kaolin, applied at 25 and 50 kg/ha. […] Two plant growth regulating compounds, methyl salicylate and sodium salicylate, were each mixed individually with the kaolin. In addition to combinations of kaolin and each of the plant growth regulating compounds, the experiment included applying kaolin alone and each of the plant growth regulating compounds alone, each mixed with water. The concentrations of each of the plant growth regulating compounds in the composition were 1×10^−4M and 1×10^−5M.

[2] = tested on: Field-grown tomatoes (var. Better Boy); test: Field trial without irrigation, weekly treatments (Example 3)
Text: Treatment consisted of a composition comprised of a particulate material and a plant growth regulating compound mixed with water. The particulate material was kaolin, applied at 25 and 50 kg/ha. […] The plant growth regulating compound was sodium salicylate, which was applied at a concentration of 1×10^−5M in the composition. In addition to combinations of kaolin and the plant growth regulating compound, the experiment included applying kaolin alone and the plant growth regulating compound alone, each mixed with water. The trial was conducted in a grower field of sandy soil in Wake County, N.C. under grower conditions. The conditions were considered to be severe, as there was no irrigation and rainfall was insufficient during the trial. Treatments were applied at weekly intervals. The trial was a randomized complete block design with three replications.

tomatoes (var. Marglobe) [3] = test: Growth chamber induced temperature/light stress in tomatoes (Example 2); details: for Chlorosis (%): after five days, 4 to 42° C
Method: In this example, a growth chamber was used to induce stress in plants. Tomatoes (var. Marglobe) were greenhouse grown, then adapted in the growth chamber for two days at a constant 20° C. and the highest light intensity produced by the growth chamber. The temperature was then programmed for a multi-step diurnal variation between about 4 and about 42° C. The plants were treated with a composition comprised of a particulate material and a plant growth regulating compound mixed with water. The particulate material used was Kaolin, applied at 25 and 50 kg/ha. […] The plant growth regulating compound was sodium salicylate, which was applied at 1×10^−4M and 1×10^−5M in the composition. In addition to combinations of kaolin and the plant growth regulating compound, the experiment included applying kaolin alone and the plant growth regulating compound alone, each mixed with water.

Potted tomatoes = test: Chill stress of potted tomatoes under field conditions (Example 5); details: particulate 0 kg/ha, rating 10 completely healthy, 0 dead
Text: Potted tomatoes under field conditions were subjected to cold temperatures in Australia in September-October 2007. […] The plants were sprayed with a composition comprised of particulate material and a plant growth regulating compound mixed with water. The particulate material used was kaolin, applied at 25 and 50 kg/ha. […] Two plant growth regulating compounds, sodium salicylate and benzyl acetate, were each mixed individually with the kaolin. The concentration of each plant growth regulating compound in the composition was 1×10^−5M. In addition to combinations of kaolin and each of the plant growth regulating compounds, the experiment included applying kaolin alone and sodium salicylate alone each mixed with water. The vigor and health of the plants were evaluated during the period of the trial.

[4] = tested on: early season tomatoes (var. Mountain Spring); test: Irrigated field trial, flower abortion (Example 4); details: 1 × 10^−5M
Text: In addition to combinations of kaolin and the plant growth regulating compound, the experiment included applying kaolin alone and the plant growth regulating compound alone, each mixed with water.

COC(=O)c1ccccc1O [Me Salicylate, methyl salicylate]
Mortality (%) (tomatoes (var. Marglobe) [1]; 1 × 10^−4M): 0%
Mortality (%) (tomatoes (var. Marglobe) [1]; 1 × 10^−5M): 20%

O=C([O-])c1ccccc1O.[Na+] [Na Salicylate, sodium salicylate]
# flower clusters/plant ([2]; Rating 1, 1 × 10^−5M): 2.61
# Fruit > 2 cm ([2]; Rating 2, 1 × 10^−5M): 1.05
# flower clusters/plant ([2]; Rating 2, 1 × 10^−5M): 3.78
# Mature blossoms ([2]; Rating 3, 1 × 10^−5M): 2.89
# clusters/plant ([2]; Rating 3, 1 × 10^−5M): 0.75
Fruit > 1 cm ([2]; Rating 3, 1 × 10^−5M): 1.46
stress protection (in words) ([2]; plant growth, flowering, fruit clusters per plant, no irrigation): values intermediate between the untreated plants and the plants treated with both
Mortality (%) (tomatoes (var. Marglobe) [1]; 1 × 10^−4M): 83%
Mortality (%) (tomatoes (var. Marglobe) [1]; 1 × 10^−5M): 6.3%
Growth (cm) (tomatoes (var. Marglobe) [3]; 1 × 10^−4M): 1.9 cm
Chlorosis (%) (tomatoes (var. Marglobe) [3]; 1 × 10^−4M): 7.5%
Growth (cm) (tomatoes (var. Marglobe) [3]; 1 × 10^−5M): 1.9 cm
Chlorosis (%) (tomatoes (var. Marglobe) [3]; 1 × 10^−5M): 8.8%
Plant Vigor/Health (Potted tomatoes; 7/10/2007, growth compound 0.8 g/ha): 7.7 a
Plant Vigor/Health (Potted tomatoes; 7/10/2007, growth compound 1.6 g/ha): 7.3 a
Plant Vigor/Health (Potted tomatoes; 12/9/2007, growth compound 0.8 g/ha): 10 a
Plant Vigor/Health (Potted tomatoes; 12/9/2007, growth compound 1.6 g/ha): 10 a
Plant Vigor/Health (Potted tomatoes; 26/09/2007, growth compound 0.8 g/ha): 6.5 ab
Plant Vigor/Health (Potted tomatoes; 26/09/2007, growth compound 1.6 g/ha): 6.5 ab
# Aborted Flowers/Plant ([4]; Rating 1): 20.75
# Aborted Flowers/Plant ([4]; Rating 2): 3.94
